Source: the supplement of paper PMC5908809

Assays:
Experiment in all cases: relative IC50 (inflection point of fitted viability curve, relative to fitted max inhibition); higher = less sensitive
Conditions in all cases: 72 h
[1] = test system: NKL (IL-2 2.5 ng/mL)
Description: (§1)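 Drug sensitivity and resistance testing: 5 concentrations over a 10,000-fold range, 72 h at 37 °C, viability by CellTiter-Glo normalised to DMSO and benzethonium chloride controls. IC50 is the inflection point of a logistic fit (min fixed at 0, max fitted), so it is relative to the fitted maximal inhibition. Kept only where fitted max inhibition is at least 50%.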

[2] = test system: KHYG-1 (IL-2 2.5 ng/mL)
Description: as §1

[3] = test system: IMC-1 (IL-2 20 ng/mL)
Description: as §1

[4] = test system: SNK-6 (IL-2 2.5 ng/mL)
Description: as §1

[5] = test system: DERL-7 (IL-2 2.5 ng/mL)
Description: as §1

[6] = test system: KAI3 (IL-2 2.5 ng/mL)
Description: as §1

[7] = test system: NK-92 (IL-2 2.5 ng/mL)
Description: as §1

Row | Compound | relative IC50 [3] [µM] | relative IC50 [4] [µM] | also measured
1 | CCc1cc(Nc2nccc(-c3c(-c4ccc(OC)c(C(=O)Nc5c(F)cccc5F)c4)nc4ccccn34)n2)c(OC)cc1N1CCC(N2CCN(S(C)(=O)=O)CC2)CC1 | > 10 | > 10 | relative IC50 [1]: > 10000 nM; relative IC50 [2]: > 10 µM
2 | CNC(=O)c1ccc(C)c(-n2c(C)cc(OCc3ccc(F)cc3F)c(Br)c2=O)c1 | – | > 1 | –
3 | CNc1nc(-c2ccc3c(N)n[nH]c3c2)cc(N2C[C@@H](C(=O)NC3CCCCC3)CC[C@H]2C)n1 | > 10 | > 10 | relative IC50 [5]: 248 nM
4 | COc1cc2ncnc(Oc3cccc(NC(=O)Nc4cc(C(C)(C)C(F)(F)F)on4)c3)c2cc1OC | – | > 10 | –
5 | N[C@@H]1CCCN(c2c(/C=C3\SC(=O)NC3=O)cccc2-c2ccccc2)C1 [AZD1208] | > 10 | – | relative IC50 [5]: 304 nM
6 | C[C@]12CC[C@H](O)CC1=CC[C@@H]1[C@@H]2CC[C@]2(C)C(c3cccnc3)=CC[C@@H]12 [Abiraterone] | – | > 5 | –
7 | Cc1ccc(NC(=O)c2ccc(CN3CC[C@H](N(C)C)C3)c(C(F)(F)F)c2)cc1Nc1nccc(-c2cncnc2)n1 [Bafetinib] | – | – | relative IC50 [1]: 136 nM
8 | CCCCCOC(=O)Nc1nc(=O)n([C@@H]2O[C@H](C)[C@@H](O)[C@H]2O)cc1F [Capecitabine] | > 10 | 1.63 | relative IC50 [2]: > 10 µM; relative IC50 [5]: 2520 nM; relative IC50 [6]: 1080 nM
9 | C[C@@H](Oc1cc(-c2cnn(C3CCNCC3)c2)cnc1N)c1c(Cl)ccc(F)c1Cl [Crizotinib] | – | > 1 | –
10 | Cc1nc(Nc2ncc(C(=O)Nc3c(C)cccc3Cl)s2)cc(N2CCN(CCO)CC2)n1 [Dasatinib] | – | – | relative IC50 [1]: 49.8 nM
11 | CON(C)C(=O)N1N=C(c2cc(F)ccc2F)S[C@@]1(CCCN)c1ccccc1 [Filanesib] | 0.00315 | – | –
12 | CN1CCN(C2CCN(C(=O)Nc3cc(Oc4ccc(NC(=O)C5(C(=O)Nc6ccc(F)cc6)CC5)c(F)c4)ccn3)CC2)CC1 [Golvatinib] | – | – | relative IC50 [2]: 0.715 µM
13 | CC(C)C[C@H](NC(=O)[C@@H](COC(C)(C)C)NC(=O)[C@H](Cc1ccc(O)cc1)NC(=O)[C@H](CO)NC(=O)[C@H](Cc1c[nH]c2ccccc12)NC(=O)[C@H](Cc1cnc[nH]1)NC(=O)[C@@H]1CCC(=O)N1)C(=O)N[C@@H](CCCNC(=N)N)C(=O)N1CCC[C@H]1C(=O)NNC(N)=O [Goserelin] | – | > 10 | –
14 | COc1ccc(COc2cc3oc(=O)c4cc(C(C)O)ccc4c3cc2OC)cc1 (stereo not given) [Palomid-529] | – | – | relative IC50 [7]: 1280 nM; relative IC50 [2]: 1.96 µM
15 | O=C(CCBr)N1CCN(C(=O)CCBr)CC1 [Pipobroman] | – | > 10 | –
16 | CCNC(=O)Nc1ccc(-c2nc3c(c(N4CCOC[C@@H]4C)n2)CCN(C2COC2)C3)cc1 [RG-7603] | > 2.5 | – | relative IC50 [1]: 185 nM; relative IC50 [5]: 156 nM
17 | Cn1cc(-c2ccc3nnc(Sc4ccc5ncccc5c4)n3n2)cn1 [SGX-523] | > 5 | – | relative IC50 [2]: > 5 µM
18 | Cc1c(C(=O)Nc2ccc(N3C[C@@H](C)O[C@@H](C)C3)nc2)cccc1-c1ccc(OC(F)(F)F)cc1 [Sonidegib] | 2.25 | – | relative IC50 [7]: 1150 nM
19 | COc1cc(C(=O)NC2CCN(C)CC2)c(F)cc1Nc1ncc2c(n1)N(C1CCCC1)CC(F)(F)C(=O)N2C [TAK-960] | – | – | relative IC50 [5]: > 2500 nM
20 | C[C@@H]1CN(Cc2ccc(F)cc2)[C@@H](C)CN1C(=O)c1cc2c(C(=O)C(=O)N(C)C)cn(C)c2cc1Cl [Talmapimod] | – | > 10 | relative IC50 [2]: > 10 µM
21 | O[C@H]1CC[C@H](Nc2ncc3nc(Nc4c(F)cc(F)cc4F)n([C@H]4CCOC4)c3n2)CC1 [Tanzisertib] | – | > 10 | –
22 | O=c1ncn2nc(Sc3ccc(F)cc3F)ccc2c1-c1c(Cl)cccc1Cl [VX 745] | – | – | relative IC50 [1]: 719 nM; relative IC50 [6]: 779 nM
23 | CCc1c(C(=O)C(N)=O)c2c(OCC(=O)O)cccc2n1Cc1ccccc1 [Varespladib] | > 10 | – | –
